Results reported in patent publication US20110152341A1, “CLEAVAGE OF B-AMYLOID PRECURSOR PROTEIN” (PROBIODRUG AG, priority 2009, published 2011).

System: human meprin-β (hMPβ) and human APP in HEK293 cells
Assay: Aβ secreted by HEK293 cells after transient overexpression of human meprin-β and human APP, ELISA
Type: cell-based
Details: 20 μM actinonin (1% DMSO), 24 h, HEK293, ELISA (IBL) with antibody 6E10
Protocol: The sequence of human APP was cloned into the vector pcDNA3.1 (Invitrogen) and various mutations were inserted. The resulting clones were named pcDNA-hAPP (for wildtyp APP), pcDNA-hAPPsw (for mutation K595N, M596L) and pcDNA-hAPP/E3Q (for mutation E599Q). For transient overexpression of human meprin and human APP the cells were cultured in 6-well dishes until 90% confluence, transfected with 2 μg of vector with meprin and 2 μg of one of the described APP-vectors per well using Lipofectamin2000 (Invitrogen) according to manufacturer's manual. Control samples were transfected with pcDNA3.1. After 24 h the solution was replaced by medium free of serum and phenolred. Medium was collected 24 h later and supplemented with a protease inhibitor cocktail (complete, Mini, Roche), centrifuged at 500×g and 10 000×g, subsequently to remove cells and debris. The supernatant was stored at −80 until analysis by ELISA (IBL) and urea western-blot for identification of liberated Aβ species.
24 h after co-transfection of HEK293 cells with human APP and meprin (as described for example 4) the medium was replaced by medium free of serum and phenolred supplemented with 20 μM Actinonin (1% DMSO). 24 hours later medium was collected, supplemented with inhibitor cocktail (complete, Mini, Roche), centrifuged at 500×g and 10 000×g, subsequently to remove cells and debris. […]

CCCCC[C@H](CC(=O)NO)C(=O)N[C@H](C(=O)N1CCC[C@H]1CO)C(C)C [Actinonin]
Effect on the increase of Aβ secretion after overexpression of hAPP and hMPβ: reduced to almost the basal level
